{"source": "PubChem BioAssay AID1259409", "about": "(Chemical Carcinogenesis Research Information System (CCRIS), 2018)", "origin": "cited, not measured here", "test_system": "rodent chemically induced tumor inhibition, incidence and multiplicity", "assay": "CCRIS tumor inhibitor studies", "conditions": "Promoter: NONE USED"}
{"smiles": "O=c1oc2c(O)c(O)cc3c(=O)oc4c(O)c(O)cc1c4c23", "values": [{"measurement": "tumour outcome (control, treated, inhibition, significance)", "setting": "Carcinogen: 2-AMINO-1-METHYL-6-PHENYL-1H-IMIDAZO[4,5-B]PYRID INE, 105650-23-5, Dose [Inhibitor]: 0, 0.1% IN THE DIET FOR 52 WK (STUDY DURATION: 52 WK), Route [Inhibitor]: ORAL, Species: RAT, Strain/Sex: F344/FEMALE, Target Tissue: Type of Lesion: MAMMARY GLAND: ADENOCARCINOMA, Dose [Carcinogen]: 0.02% IN THE DIET FOR 52 WK", "result": "8/20 (40%), 5/19 (26%), 35%, not significant"}, {"measurement": "tumour outcome (control, treated, inhibition, significance)", "setting": "Carcinogen: 2-AMINO-1-METHYL-6-PHENYL-1H-IMIDAZO[4,5-B]PYRID INE, 105650-23-5, Dose [Inhibitor]: 0, 0.1% IN THE DIET FOR 52 WK (STUDY DURATION: 52 WK), Route [Inhibitor]: ORAL, Species: RAT, Strain/Sex: F344/FEMALE, Target Tissue: Type of Lesion: MAMMARY GLAND: FIBROADENOMA, Dose [Carcinogen]: 0.02% IN THE DIET FOR 52 WK", "result": "2/20 (10%), 0/19 (0%), 100%, not significant"}, {"measurement": "tumour outcome (control, treated, inhibition, significance)", "setting": "Carcinogen: 2-AMINO-1-METHYL-6-PHENYLIMIDAZO[4,5-B]PYRIDINE, 105650-23-5, Dose [Inhibitor]: 0, 0.1% IN DIET FOR 52 WK CONCURRENTLY WITH CARCINOGEN TREATMENT (STUDY DURATION: 52 WK), Route [Inhibitor]: ORAL, Species: RAT, Strain/Sex: F344/FEMALE, Target Tissue: Type of Lesion: LARGE INTESTINE: ADENOMA OR CARCINOMA, Dose [Carcinogen]: 0.02% IN DIET FOR 52 WK", "result": "2/18 (11%), 3/18 (17%), -55%, not significant"}, {"measurement": "tumour outcome (control, treated, inhibition, significance)", "setting": "Carcinogen: 2-AMINO-1-METHYL-6-PHENYLIMIDAZO[4,5-B]PYRIDINE, 105650-23-5, Dose [Inhibitor]: 0, 0.1% IN DIET FOR 52 WK CONCURRENTLY WITH CARCINOGEN TREATMENT (STUDY DURATION: 52 WK), Route [Inhibitor]: ORAL, Species: RAT, Strain/Sex: F344/FEMALE, Target Tissue: Type of Lesion: MAMMARY GLAND: ADENOCARCINOMA, Dose [Carcinogen]: 0.02% IN DIET FOR 52 WK", "result": "8/20 (40%), 5/19 (26%), 35%, not significant"}, {"measurement": "tumour outcome (control, treated, inhibition, significance)", "setting": "Carcinogen: 3-METHYLCHOLANTHRENE, 56-49-5, Dose [Inhibitor]: 1 UMOL 2/WK FOR 16 WK APPLIED 1 HR PRIOR TO EACH CARCINOGEN TREATMENT (STUDY DURATION: 16 WK), Route [Inhibitor]: DERMAL, Species: MOUSE, Strain/Sex: BALB/FEMALE, Target Tissue: Type of Lesion: SKIN: TUMOR, Dose [Carcinogen]: 1.5 UMOL 2/WK FOR 16 WK", "result": "100%, 50%, 50%, not calculated"}, {"measurement": "tumour outcome (control, treated, inhibition, significance)", "setting": "Carcinogen: 3-METHYLCHOLANTHRENE, 56-49-5, Dose [Inhibitor]: 1.0 UMOL APPLIED 1 HR PRIOR TO EACH CARCINOGEN DOSE 2/WK FOR 16 WK (STUDY DURATION: 16 WK), Route [Inhibitor]: DERMAL, Species: MOUSE, Strain/Sex: BALB/FEMALE, Target Tissue: Type of Lesion: SKIN: TUMOR, Dose [Carcinogen]: 1.5 UMOL 2/WK FOR 16 WK", "result": "100%, 50%, 50%, not calculated"}, {"measurement": "tumour outcome (control, treated, inhibition, significance)", "setting": "Carcinogen: 3-METHYLCHOLANTHRENE, 56-49-5, Dose [Inhibitor]: 2 UMOL 2/WK FOR 16 WK APPLIED 1 HR PRIOR TO EACH CARCINOGEN TREATMENT (STUDY DURATION: 16 WK), Route [Inhibitor]: DERMAL, Species: MOUSE, Strain/Sex: BALB/FEMALE, Target Tissue: Type of Lesion: SKIN: TUMOR, Dose [Carcinogen]: 1.5 UMOL 2/WK FOR 16 WK", "result": "100%, 40%, 60%, not calculated"}, {"measurement": "tumour outcome (control, treated, inhibition, significance)", "setting": "Carcinogen: 3-METHYLCHOLANTHRENE, 56-49-5, Dose [Inhibitor]: 2 UMOL APPLIED 1 HR PRIOR TO EACH CARCINOGEN DOSE 2/WK FOR 16 WK (STUDY DURATION : 16 WK), Route [Inhibitor]: DERMAL, Species: MOUSE, Strain/Sex: BALB/FEMALE, Target Tissue: Type of Lesion: SKIN: TUMOR, Dose [Carcinogen]: 1.5 UMOL 2/WK FOR 16 WK", "result": "100%, 40%, 60%, not calculated"}, {"measurement": "tumour outcome (control, treated, inhibition, significance)", "setting": "Carcinogen: 4-(METHYLNITROSAMINO)-1-(3-PYRIDYL)-1-BUTANONE, 64091-91-4, Dose [Inhibitor]: 0, 4 G/KG DIET 2 WK PRIOR TO CARCINOGEN TREATMENT AND CONTINUING FOR STUDY DURATION (STUDY DURATION: 26 MO), Route [Inhibitor]: ORAL, Species: MOUSE, Strain/Sex: STRAIN-A/FEMALE, Target Tissue: Type of Lesion: LUNG: ADENOMA, Dose [Carcinogen]: TOTAL DOSE 9.2 MG/MOUSE ADMINISTERED IN DRINKING WATER", "result": "100%, 96%, 4%, not calculated"}, {"measurement": "tumour outcome (control, treated, inhibition, significance)", "setting": "Carcinogen: 4-(METHYLNITROSAMINO)-1-(PYRIDYL)-1-BUTANONE, 64091-91-4, Dose [Inhibitor]: 0, 4 G/KG DIET (37 UMOL/D) BEGINNING 2 WK PRIOR TO CARCINOGEN DOSE AND CONTINUING FOR DURATION OF STUDY (STUDY DURATION:, Route [Inhibitor]: ORAL, Species: MOUSE, Strain/Sex: STRAIN-A/FEMALE, Target Tissue: Type of Lesion: LUNG: ADENOMA, Dose [Carcinogen]: 9.2, 9.4 MG/MOUSE IN DRINKING WATER DURING 7 WK", "result": "28/28 (100%), 24/25 (96%), 4%, not significant"}, {"measurement": "tumour outcome (control, treated, inhibition, significance)", "setting": "Carcinogen: 4-(METHYLNITROSOAMINO-1-(PYRIDYL)-1-BUTANONE, 64091-91-4, Dose [Inhibitor]: 0, 4 G/KG DIET BEGINNING 1 D POST CARCINOGEN DOSE AND CONTINUING FOR 16 WK (STUDY DURATION: 16 WK), Route [Inhibitor]: ORAL, Species: MOUSE, Strain/Sex: STRAIN-A/FEMALE, Target Tissue: Type of Lesion: LUNG: ADENOMA, Dose [Carcinogen]: 2 MG IN 0.2 ML OF O.9% NACL ONCE", "result": "100%, 100%, 0%, not significant"}]}
